# Results: ChEMBL document CHEMBL1153407, “12-Substituted 2,3-dimethoxy-8,9-methylenedioxybenzo[i]phenanthridines as novel topoisomerase I-targeting antitumor agents” (Bioorg Med Chem, 2009)
# Legend:
# [1] = Cytotoxicity against BCRP overexpressing human KBH5.0 cells after 4 days by MTT method; assay type: functional, cell-based; conditions: KBH5.0 cell, 96 h
# [2] = system: P388; assay: Cytotoxicity against mouse P388 cells after 4 days by MTT method; assay type: functional, cell-based; conditions: P388, 96 h
# [3] = biological target: T1, DNA topoisomerase 1 (Homo sapiens) (UniProt P11387); assay: Inhibition of human topoisomerase 1 expressed in sf9 cells assessed as drug level causing 10% mediated DNA cleavage relative to topotecan
# T1 sequence (whole entry): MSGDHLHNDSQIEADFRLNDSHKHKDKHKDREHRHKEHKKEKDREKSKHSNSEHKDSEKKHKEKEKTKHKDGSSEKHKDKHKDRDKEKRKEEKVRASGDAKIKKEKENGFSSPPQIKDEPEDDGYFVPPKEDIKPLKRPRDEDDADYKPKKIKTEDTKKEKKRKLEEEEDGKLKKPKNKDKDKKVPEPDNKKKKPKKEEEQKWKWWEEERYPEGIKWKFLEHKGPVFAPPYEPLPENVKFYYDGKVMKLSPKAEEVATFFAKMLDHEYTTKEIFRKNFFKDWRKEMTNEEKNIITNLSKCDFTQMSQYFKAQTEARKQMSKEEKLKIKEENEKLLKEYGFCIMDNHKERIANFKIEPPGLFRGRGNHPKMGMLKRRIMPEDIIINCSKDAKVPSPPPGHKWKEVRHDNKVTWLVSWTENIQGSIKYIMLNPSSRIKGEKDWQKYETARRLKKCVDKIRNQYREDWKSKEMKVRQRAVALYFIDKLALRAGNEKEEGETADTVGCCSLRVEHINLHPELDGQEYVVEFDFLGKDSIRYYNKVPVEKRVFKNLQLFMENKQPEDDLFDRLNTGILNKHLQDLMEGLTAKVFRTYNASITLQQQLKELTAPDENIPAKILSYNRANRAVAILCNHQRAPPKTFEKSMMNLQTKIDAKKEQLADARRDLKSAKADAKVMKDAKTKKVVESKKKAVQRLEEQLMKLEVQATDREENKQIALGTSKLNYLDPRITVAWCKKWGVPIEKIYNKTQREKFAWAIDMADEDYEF
# [4] = Cytotoxicity against human KB3-1 cells after 4 days by MTT method; assay type: functional, cell-based; conditions: KB 3-1, 96 h
# [5] = Cytotoxicity against MDR1 overexpressing human KBV1 cells after 4 days by MTT method; assay type: functional, cell-based; conditions: KB-V1, 96 h
# [6] = Cytotoxicity against human RPMI8402 cells after 4 days by MTT method; assay type: functional, cell-based; conditions: RPMI 8402, 96 h
# [7] = Cytotoxicity against camptothecin-resistant human CPT-K5 cells after 4 days by MTT method; assay type: functional, cell-based; conditions: CPT-K5, 96 h
# [8] = system: P388; assay: Cytotoxicity against camptothecin-resistant mouse P388 cells after 4 days by MTT method; assay type: functional, cell-based; conditions: P388, 96 h
SMILES,IC50 [1] [nM],IC50 [2] [nM],Activity [3],IC50 [4] [nM],IC50 [5] [nM],IC50 [6] [nM],IC50 [7] [nM],IC50 [8] [nM]
COc1cc2c(CO)cc3c4cc5c(cc4ncc3c2cc1OC)OCO5,80,30,0.25,45,75,30,30,30
CCc1c2c(nc3ccc(O)cc13)-c1cc3c(c(=O)n1C2)COC(=O)[C@]3(O)CC [7-ETHYL-10-HYDROXYCAMPTOTHECIN],300,–,–,4,46,–,–,–
COc1cc2c(CCCN(C)C)cc3c4cc5c(cc4ncc3c2cc1OC)OCO5,180,38,10,40,500,180,140,100
COc1cc2c(/C=C/CN(C)C)cc3c4cc5c(cc4ncc3c2cc1OC)OCO5,290,30,7.7,160,370,45,83,37
CNC(=O)c1cc2c3cc4c(cc3ncc2c2cc(OC)c(OC)cc12)OCO4,80,30,1.2,31,100,40,> 10000,300
COc1cc2c(CC[N+](=O)[O-])cc3c4cc5c(cc4ncc3c2cc1OC)OCO5,490,280,7.7,300,440,380,300,290
COc1cc2c(=O)n(CCN(C)C)c3c4cc5c(cc4ncc3c2cc1OC)OCO5,6,–,0.3,5,2,2,900,–
COc1cc2c(C(N)=O)cc3c4cc5c(cc4ncc3c2cc1OC)OCO5,> 10000,1600,0.8,1500,> 10000,4000,> 10000,> 10000
COc1cc2c(CN(C)C)cc3c4cc5c(cc4ncc3c2cc1OC)OCO5,60,5,1.1,30,170,33,33,15
COc1cc2c(/C=C/CCN(C)C)cc3c4cc5c(cc4ncc3c2cc1OC)OCO5,320,30,15,320,400,300,220,60
COc1cc2c(CNCCN(C)C)cc3c4cc5c(cc4ncc3c2cc1OC)OCO5,38,20,1.9,25,27,24,30,24
COc1cc2c(C(O)CCCN(C)C)cc3c4cc5c(cc4ncc3c2cc1OC)OCO5 (centres undefined),550,410,9.2,170,1900,300,2100,510
COc1cc2c(CCN(C)C)cc3c4cc5c(cc4ncc3c2cc1OC)OCO5,70,30,0.5,25,80,30,450,300
COc1cc2c3cnc4cc5c(cc4c3c(=O)n(CCN(C)C)c2cc1OC)OCO5,4,–,0.6,3,4,0.7,210,15
COc1cc2c(/C=C/[N+](=O)[O-])cc3c4cc5c(cc4ncc3c2cc1OC)OCO5,40,25,9.2,30,1780,33,35,25
COc1cc2c(CCN)cc3c4cc5c(cc4ncc3c2cc1OC)OCO5,200,16,0.3,50,500,25,250,300
COc1cc2c(CCCCN(C)C)cc3c4cc5c(cc4ncc3c2cc1OC)OCO5,950,1400,0.2,400,4000,1000,2300,2100
COc1cc2c(C=O)cc3c4cc5c(cc4ncc3c2cc1OC)OCO5,19,2,4.7,4,16,3,3,2
CC[C@@]1(O)C(=O)OCc2c1cc1n(c2=O)Cc2cc3c(CN(C)C)c(O)ccc3nc2-1 [TOPOTECAN],440,–,–,40,440,–,–,–
COc1cc2c(C(=O)NCCN(C)C)cc3c4cc5c(cc4ncc3c2cc1OC)OCO5,60,3,0.1,5,220,3,1000,320
CC[C@@]1(O)C(=O)OCc2c1cc1n(c2=O)Cc2cc3ccccc3nc2-1 [CAMPTOTHECIN],–,–,0.2,–,–,4,> 10000,> 10000
COc1cc2c(C(=O)N(C)C)cc3c4cc5c(cc4ncc3c2cc1OC)OCO5,380,480,1.1,600,700,600,> 10000,> 10000
